What follows are compounds tested against T1, KRAS G12C 1-169, his-tagged protein, GDP-loaded (Homo sapiens, UniProt P01116, G12C) (assay: Biochemical assay: covalent binding to KRAS G12C analyzed by mass spectrometry). Conditions: compounds 1-47, measured at 24 h.
T1 construct: KRAS G12C 1-169, his-tagged protein, GDP-loaded
Further: test concentration or dose not given here.

T1 sequence (P01116 1-169 isoform P01116-2 G12C): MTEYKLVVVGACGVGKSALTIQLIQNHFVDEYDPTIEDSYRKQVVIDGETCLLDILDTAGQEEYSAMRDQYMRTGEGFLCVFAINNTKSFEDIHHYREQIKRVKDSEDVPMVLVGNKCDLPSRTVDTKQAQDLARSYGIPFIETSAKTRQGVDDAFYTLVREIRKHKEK

Compound | Binding %
C=CC(=O)N1CCN(c2ncnc3cc(Cl)c(-c4ccncc4)cc23)CC1 [Compound I-17, 1-(4-(7-chloto-6-(pyridin-4-yl)quinazolin-4-yl)piperazin-1-yl)prop-2-en-1-one] | + (+indicates binding activity from 5% to 25%)
C=CC(=O)N1CCN(c2ccnc3cc(Cl)c(-c4ccccc4Cl)cc23)CC1 [Compound I-27, 1-(4-(7-chloro-6-(2-chlorophenyl)quinolin-4-yl)piperazin-1-yl)prop-2-en-1-one] | ++ (++indicates binding activity greater than 25% and up to 50%)
C=CC(=O)N1CCN(c2ncnc3cc(Cl)c(-c4ccc(Cl)cc4O)cc23)CC1 [Compound I-11, 1-(4-(7-chloro-6-(4-chloro-2-hydroxyphenyl)quinoazlin-4-yl)piperazin-1-yl)prop-2-en-1-one] | ++++ (++++indicates binding activity greater than 75%)

Same assay, conditions: compounds 48-246, measured at 2 h

Compound | Binding %
C=CC(=O)N1CCN(c2ncnc3cc(-c4cccc5c4OCCO5)c(Cl)cc23)CC1 [Compound I-201, 1-(4-(6-chloro-7-(2,3-dihydrobenzo[d][1,4]dioxol-5-yl)quinazolin-4-yl)piperazin-1-yl)prop-2-en-1-one] | +++ (+++indicates binding activity greater than 50% and up to 75%)
C=CC(=O)N1CCN(c2ncnc3cc(-c4c(F)cccc4C(N)=O)c(Cl)cc23)CC1 [Compound I-232, 2-(4-(4-acryloylpiperazin-1-yl)-6-chloroquinazolin-7-yl)-3-fluorobenzamide] | + (+indicates binding activity from 5% to 25%)
C=CC(=O)N1CCN(c2ncnc3cc(-c4cc(-c5cn[nH]c5)ccc4F)c(Cl)cc23)CC1 [Compound I-188, 1-(4-(6-chloro-7-(2-fluoro-5-(1H-pyrazol-4-yl)phenyl)quinazolin-4-yl)piperazin-1-yl)prop-2-en-1-one] | +++ (+++indicates binding activity greater than 50% and up to 75%)
C=CC(=O)N1CCN(c2ncnc3cc(-c4ccccc4F)c(C(F)(F)F)cc23)CC1 [Compound I-150, 1-(4-(7-(2-fluorophenyl)-6-(trifluoromethyl)quinazolin-4-yl)piperazin-1-yl)prop-2-en-1-one] | ++++ (++++indicates binding activity greater than 75%)
C=CC(=O)N1CCN(c2ncnc3cc(N4CCNCC4)c(Cl)cc23)CC1 [Compound I-80, 1-(4-(6-chloro-7-(piperazin-1-yl)quinazolin-4-yl)piperazin-1-yl)prop-2-en-1-one] | + (+indicates binding activity from 5% to 25%)
C=CC(=O)N1CCN(c2ncnc3cc(-c4cc(NC(C)=O)ccc4F)c(Cl)cc23)CC1 [Compound I-174, N-(3-(4-(4-acryloylpiperazin-1-yl)-6-chloroquinazolin-7-yl)-4-fluorophenyl)acetamide] | ++ (++indicates binding activity greater than 25% and up to 50%)
CCOC(=O)/C=C/C(=O)N1CCN(c2ncnc3cc(-c4ccc(F)cc4F)c(Cl)cc23)CC1 [Compound I-239, (E)-ethyl 4-(4-(6-chloro-7-(2,4-difluorophenyl)quinazolin-4-yl)piperazin-1-yl)-4-oxobut-2-enoate] | +++ (+++indicates binding activity greater than 50% and up to 75%)
CN(C)C/C=C/C(=O)N1CCN(c2ncnc3c(F)c(-c4ccccc4F)c(Cl)cc23)CC1 [Compound I-229, (E)-1-(4-(6-chloro-8-fluoro-7-(2-fluorophenyl)quinazolin-4-yl)piperazin-1-yl)-4-(dimethylamino)but-2-en-1-one] | ++ (++indicates binding activity greater than 25% and up to 50%)
C=CC(=O)N1CCN(c2ncnc3c(F)c(-c4ccc(F)cc4F)c(Cl)cc23)CC1 [Compound I-224, 1-(4-(6-chloro-7-(2,4-difluorophenyl)-8-fluoroquinazolin-4-yl)piperazin-1-yl)prop-2-en-1-one] | +++ (+++indicates binding activity greater than 50% and up to 75%)
C=CC(=O)N1CCN(c2ncnc3cc(-c4cccc(F)c4)c(Cl)cc23)CC1 [Compound I-84, 1-(4-(6-chloro-7-(3-fluorophenyl)quinazolin-4-yl)piperazin-1-yl)prop-2-en-1-one] | ++ (++indicates binding activity greater than 25% and up to 50%)
C=CC(=O)N1CCN(c2ncnc3c(F)c(-c4c(C)ccc5[nH]ncc45)c(Cl)cc23)CC1 [Compound I-234, 1-(4-(6-chloro-8-fluoro-7-(5-methyl-1H-indazol-4-yl)quinazolin-4-yl)piperazin-1-yl)prop-2-en-1-one] | ++++ (++++indicates binding activity greater than 75%)
C=CC(=O)N1CCN(C2=c3cc(Cl)c(-c4ccccc4F)cc3=NCN2C(N)=O)CC1 [Compound I-189, 4-(4-acryloylpiperazin-1-yl)-6-chloro-7-(2-fluorophenyl)quinazolin-3-carboxamide] | ++ (++indicates binding activity greater than 25% and up to 50%)
C=CC(=O)N1CCN(c2ncnc3cc(Cl)c(-c4ccc(Cl)cc4)cc23)CC1CC(N)=O (stereo not drawn) [Compound I-69, 2-(1-acryloyl-4-(7-chloro-6-(4-chlorophenyl)quinazolin-4-yl)piperazin-2-yl)acetamide] | + (+indicates binding activity from 5% to 25%)

Same assay, conditions: compounds 247-342, measured at 30 min

Compound | Binding %
C=CC(=O)N1CCN(c2nc(NC3CCOC3)nc3cc(-c4c(C)ccc5[nH]ncc45)c(Cl)cc23)CC1 (stereo not drawn) [Compound 330, 1-(4-(6-chloro-7-(5-methyl-1H-indazol-4-yl)-2-(tetrahydrofuran-3-ylamino)quinazolin-4-yl)piperazin-1-yl)prop-2-en-1-one] | ++ (++indicates binding activity greater than 25% and up to 50%)
C=CC(=O)N1CCN(c2c(C#N)cnc3cc(-c4c(O)ccc5ccccc45)c(Cl)cc23)CC1 [Compound I-260, 4-(4-acryloylpiperazin-1-yl)-6-chloro-7-(2-hydroxynaphthalen-1-yl)quinoline-3-carbonitrile] | ++ (++indicates binding activity greater than 25% and up to 50%)
C=CC(=O)N1CCN(c2nc(OCCCN(C)C)nc3cc(-c4c(C)ccc5[nH]ncc45)c(Cl)cc23)CC1 [Compound 329, 1-(4-(6-chloro-2-(3-(dimethylamino)propoxy)-7-(5-methyl-1H-indazol-4-yl)quinazolin-4-yl)piperazin-1-yl)prop-2-en-1-one] | ++ (++indicates binding activity greater than 25% and up to 50%)
N#C/C(=C\c1ccccn1)C(=O)N1CCN(c2ncnc3c(F)c(-c4c(O)cccc4F)c(Cl)cc23)CC1 [Compound I-284, (E)-2-(4-(6-chloro-8-fluoro-7-(2-fluoro-6-hydroxyphenyl)quinazolin-4-yl)piperazine-1-carbonyl)-3-(pyridin-2-yl)acrylonitrile] | ++++ (++++indicates binding activity greater than 75%)
Cc1ccc2[nH]ncc2c1-c1c(Cl)cc2c(N3CCN(C(=O)/C=C/CN(C)C)CC3)ncnc2c1F [Compound I-295, (E)-1-(4-(6-chloro-8-fluoro-7-(5-methyl-1H-indazol-4-yl)quinazolin-4-yl)piperazin-1-yl)-4-(dimethylamino)but-2-en-1-one] | + (+indicates binding activity from 5% to 25%)
CN(C)C/C=C/C(=O)N1CCN(c2c(C#N)cnc3c(F)c(-c4cc(O)cc5ccccc45)c(Cl)cc23)CC1 [Compound 310, (E)-6-chloro-4-(4-(4-(dimethylamino)but-2-enoyl)piperazin-1-yl)-8-fluoro-7-(3-hydroxynaphthalen-1-yl)quinoline-3-carbonitrile] | ++++ (++++indicates binding activity greater than 75%)
C=CC(=O)N1CCN(c2ncnc3c(OC)c(-c4c(O)cccc4F)c(Cl)cc23)CC1 [Compound 313, 1-(4-(6-chloro-7-(2-fluoro-6-hydroxyphenyl)-8-methoxyquinazolin-4-yl)piperazin-1-yl)prop-2-en-1-one] | +++ (+++indicates binding activity greater than 50% and up to 75%)

Same assay, conditions: determined at 2 hrs

Compound | Binding %
C=CC(=O)N1CC(N2CCN(C(=O)[C@@H](C)Nc3cc(C4CC4)c(Cl)cc3O)CC2)C1 [II-68, (R)-1-(3-(4-(2-(4-chloro-5-cyclopropyl-2-hydroxyphenylamino)-propanoyl)piperazin-1-yl)azetidin-1-yl)prop-2-en-1-one] | ++ (++indicates binding activity greater than 20%)
C=CC(=O)N1CC(N2CCN(C(=O)[C@H](C)Nc3cc(C4CC4)c(Cl)cc3O)CC2)C1 [II-67, (S)-1-(3-(4-(2-((4-Chloro-5-cyclopropyl-2-hydroxyphenyl)amino)propanoyl)piperazin-1-yl)azetidin-1-yl)prop-2-en-1-one] | ++ (++indicates binding activity greater than 20%)

Same assay, conditions: determined at 24 hrs

Compound | Binding %
C=CC(=O)N1CC(N2CCN(C(=O)CNc3cc(C=O)c(Cl)cc3OC)CC2)C1 [II-46, 5-(2-(4-(1-acryloylazetidin-3-yl)piperazin-1-yl)-2-oxoethylamino)-2-chloro-4-methoxybenzaldehyde] | + (+indicates binding activity from 5% to 15%)
C=CC(=O)N1CC(N2CCN(C(=O)CNc3cc(Cl)c(F)cc3O)CC2)C1 [II-14, 1-(3-(4-(2-(5-chloro-4-fluoro-2-hydroxyphenyl-amino)acetyl)piperazin-1-yl)azetidin-1-yl)prop-2-en-1-one] | +++ (+++indicates binding activity greater than 25% and up to 50%)
C=CC(=O)NC1CN(C2CN(C(=O)CNc3cc(Cl)c(Cl)cc3O)C2)C1 [II-3, N-(1′-(2-(4,5-dichloro-2-hydroxyphenyl-amino)acetyl)-1,3′-biazetidin-3-yl)acrylamide] | ++++ (++++indicates binding activity greater than 50%)
C=CC(=O)N1CC(N2CCN(C(=O)C(C)Nc3cc(Cl)c(Cl)cc3O)CC2)C1 (stereo not drawn) [II-31, 1-(3-(4-(2-(4,5-dichloro-2-hydroxyphenylamino)-propanoyl)-piperazin-1-yl)azetidin-1-yl)prop-2-en-1-one] | ++++ (++++indicates binding activity greater than 50%)
C=CC(=O)N1CC(N2CCN(C(=O)Cn3ccc4ccccc43)CC2)C1 [II-29, 1-(3-(4-(2-(1H-indol-1-yl)acetyl)piperazin-1-yl)azetidin-1-yl)prop-2-en-1-one] | + (+indicates binding activity from 5% to 15%)
